Reference: patent US9375000B2, “Pesticidal arylpyrrolidines” (Bayer Intellectual Property GmbH, priority 2011, dated 2016)
Like-named read-outs stand apart in the source and are kept apart here.

How the values were obtained:
[1] = tested on: Tobacco Cutworm (Spodoptera litura) Larvae; test: Tobacco cutworm (Spodoptera litura) larvae, sweet potato leaf dip test; type: in vivo; details: dead larvae after 7 days
Experimental: (§1) Unless not mentioned otherwise, the test solutions were prepared as follows:
(§2) Solvent: 3 parts by weight Dimethylformamide
(§3) Emulsifier: 1 part by weight Polyoxyethylene alkyl phenyl ether
(§4) In order to make an appropriate formulation of an active compound, 1 part by weight of the active compound is mixed with the above mentioned amount of solvent and emulsifier and the mixture is diluted with water to a prescribed concentration. Ammonium salt or ammonium salt and penetration enhancer in a dosage of 1000 ppm are added to the desired concentration if necessary.
Leaves of sweet potato were immersed in the test solution at the appropriate concentration, and the leaves were dried in air. The leaves were then placed in a petri dish having a diameter of 9 cm, and ten Spodoptera litura at third instar larvae were released therein. The petri dishes were placed in a temperature-controlled chamber at 25° C. After 2 days and 4 days more sweet potato leaves were added. After 7 days, the number of dead larvae was counted to calculate the insecticidal activity. An insecticidal activity of 100% means that all larvae were killed, whereas an insecticidal activity of 0% means that no larva was killed. In the current test, the results of two petri dishes for each treatment were averaged.

[2] = tested on: Two-Spotted Spider Mite (Tetranychus urticae); test: Two-spotted spider mite (Tetranychus urticae) spray test on kidney bean; type: in vivo; details: after 7 days; for pest or weed control at 20 ppm: Tetranychus urticae, 168 h, read-out: acaricidal activity
Method in brief: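 Kidney bean plants at the two-leaf stage carried 50-100 adult mites and were sprayed one day later with compound in DMF/polyoxyethylene alkyl phenyl ether diluted in water. Ammonium salt and penetration enhancer at 1000 ppm were added if needed. Acaricidal activity (% mites killed) was scored after 7 days in a greenhouse.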

[3] = log P by HPLC on reversed phase columns (EEC directive 79/831 Annex V.A8); type: physicochemical
Experimental: Calibration was done with not branched alkan2-ones (with 3 to 16 carbon atoms) with known log P-values (measurement of log P values using retention times with linear interpolation between successive alkanones). lambda-maX-values were determined using UV-spectra from 200 nm to 400 nm and the peak values of the chromatographic signals.

[4] = tested on: Cucurbit Leaf Beetle (Aulacophora femoralis); test: Cucurbit leaf beetle (Aulacophora femoralis) cucumber leaf dip test; type: in vivo; details: after 7 days
Method in brief: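 Cucumber leaves dipped in compound formulated with DMF and polyoxyethylene alkyl phenyl ether, diluted in water, with ammonium salt or ammonium salt plus penetration enhancer at 1000 ppm added if necessary; dried leaves placed on sterilized soil with five second-instar larvae. Kept at 25° C; larval mortality counted after 7 days.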

[5] = tested on: Larvae of Spodoptera litura; test: Larvae of Spodoptera litura, method using artificial feeds; type: in vivo; details: artificial feed, after 7 days; for pest or weed control at 20 ppm: Spodoptera litura, 168 h, read-out: insecticidal activity (pesticidal ratio)
Method in brief: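 Compound formulated in dimethylformamide with polyoxyethylene alkyl phenyl ether emulsifier, water-diluted and poured onto artificial diet. Five 3rd-instar Spodoptera litura larvae per cup, held at 25° C and 50-60% humidity. Mortality after 7 days expressed as pesticidal ratio.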

[6] = tested on: Thrips palmi; test: Thrips palmi spray test (THRIPL); type: in vivo; details: after 6 days
Method in brief: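 Cucumber seedlings sprayed with compound formulated in DMF/polyoxyethylene alkyl phenyl ether and diluted in water, ammonium salt ± penetration enhancer at 1000 ppm added if needed. About 100 T. palmi eggs attached, plants held caged at 100% humidity, 23 °C. Percent activity scored from feeding damage after 6 days, 100 = no damage, 0 = as untreated.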

[7] = tested on: Nymphs of the tick Amblyomma hebraeum; test: Amblyomma hebraeum test (AMBYHE), nymph immersion; type: in vivo; details: application rate 100 ppm; immersion one minute; 42 days
Experimental: Solvent: Dimethyl sulfoxide
(§5) To produce a suitable preparation of active compound, 10 mg of active compound are dissolved in 0.5 ml solvent, and the concentrate is diluted with water to the desired concentration. Nymphs of the tick Amblyomma hebraeum are placed in perforated plastic beakers and immersed in aqueous compound solution for one minute. Ticks are transferred to a filter paper in a petridish and incubated in a climate chamber for 42 days. After the specified period of time, mortality in % is determined. 100% means that all the ticks have been killed; 0% means that none of the ticks have been killed.

[8] = tested on: green peach aphids (Myzus persicae); test: Myzus persicae spray test (MYZUPE); type: in vivo; details: after 6 days
Experimental: as §1, §2, §3, §4
1 day before treatment, green peach aphids (Myzus persicae) are inoculated onto the testing plants, about 50 heads per leaf, 100 for 1 pot. A paper label is placed on each pot. Solutions are sprayed directly onto both insects and plants. After drying, the pots are placed in the greenhouse at 20° C.-25° C. After 6 days mortality in % is determined. An insecticidal activity of 100% means that all aphids were killed, whereas an insecticidal activity of 0% means that no aphid was killed.

[9] = tested on: Ctenocephalides felis; test: Test against Ctenocephalides felis (CTECFE), blood feeding; type: in vivo; details: for activity (mortality): application rate 100 ppm in cattle blood, after 2 days; for mortality at 100 ppm: Ctenocephalides felis, in Bos taurus, 48 h, read-out: activity (mortality)
Experimental: (§6) Solvent: dimethyl sulfoxide
To produce a suitable preparation of active compound, 10 mg of active compound are dissolved in 0.5 ml solvent, and the concentrate is diluted with cattle blood to the desired concentration. Approximately 20 adult unfed (Ctenocepahlides felis) are placed in flea chambers. The blood chamber, sealed with parafilm on the bottom, are filled with cattle blood supplied with compound solution and placed on top of the flea chamber, so that the fleas are able to suck the blood. The blood chamber is heated to 37° C. whereas the flea chamber is kept at room temperature.
After 2 days mortality in % is determined. 100% means that all the fleas have been killed; 0% means that none of the fleas have been killed.

[10] = tested on: Musca domestica; test: Test against Musca domestica; type: in vivo; details: application rate 100 ppm; after 2 days
Experimental: as §6
To produce a suitable preparation of active compound, 10 mg of active compound are dissolved in 0.5 ml solvent, and the concentrate is diluted with water to the desired concentration. Prior to the assay, a piece of kitchen sponge is soaked with a mixture of sugar and compound solution and placed into a container. 10 adults (Musca domestica) are placed into the container and closed with a perforated lid. After 2 days mortality in % is determined. 100% means that all the flies have been killed; 0% means that none of the flies have been killed.

[11] = tested on: Lucilia cuprina 1st instar larvae; test: Test against Lucilia cuprina larvae; type: in vivo; details: 48 h, read-out: activity (larval mortality)
Experimental: as §6
10 mg active compound are dissolve in 0.5 mL dimethyl sulfoxide. Serial dilutions are made to obtain the desired rates.
Approximately 20 Lucilia cuprina 1st instar larvae are transferred into a test tube containing 1 cm^3 of minced horse meat and 0.5 ml aqueous dilution of test compound. After 48 hrs percentage of larval mortality are recorded. 100% efficacy=all larvae are killed, […].

[12] = tested on: adult engorged female Boophilus microplus ticks; test: Test against Boophilus microplus (dip); type: in vivo; details: Rhipicephalus microplus, 168 h, read-out: activity (mortality)
Experimental: as §6
as §5, with “Eight to ten adult engorged female Boophilus microplus ticks” for “Nymphs of the tick Amblyomma hebraeum”, “plastic tray. Egg deposition of fertile eggs is monitored after.” for “petridish and incubated in a climate chamber for 42 days.”, “7 days” for “the specified period of time,”

[13] = active compound concentration 20 ppm
[14] = active compound concentration 4 ppm
[15] = active compound concentration 100 ppm

SMILES | acaricidal activity [2, 14] | insecticidal activity [4, 14] | insecticidal activity [4, 13] | insecticidal activity (pesticidal ratio) [5, 14] | insecticidal activity (by feeding damage degree) [6, 13] | activity (mortality) [7] | insecticidal activity [1, 14] | further results
COCCC(=O)NCc1ccc(N2CCC(c3cc(C(F)(F)F)cc(C(F)(F)F)c3)(C(F)(F)F)C2O)nc1Br (mixture of isomers) [A3-162] |  |  |  |  |  |  |  | insecticidal activity [1, 13]: 100%; acaricidal activity [2, 13]: 90%; logP [3]: 3.71
O=C(NCc1ccc(N2CCC(c3ccc(F)c(C(F)(F)F)c3)(C(F)(F)F)C2O)nc1C(F)(F)F)C1CC1 (mixture of isomers) [A3-236] | 100% | 100% | 100% | 100% | 98% | 100% |  | insecticidal activity (pesticidal ratio) [5, 13]: 100%
O=C(NCc1cnc(N2CCC(c3cc(Cl)c(F)c(Cl)c3F)(C(F)(F)F)C2O)nc1C(F)(F)F)C1CC1 (stereo not shown) [A4-115] | 100% |  | 100% |  | 98% | 100% | 100% | insecticidal activity (mortality) [8, 13]: 100%; activity (mortality) [9]: 90%
O=C(NCc1ccc(N2CCC(c3cc(Cl)cc(Cl)c3)(C(F)(F)F)C2O)cc1F)C1CC1 (mixture of isomers) [A1-99] | 90% |  | 100% |  |  |  | 100% | log P [3]: 3.47
O=C(NCc1cnc(N2CCC(c3cc(Cl)c(F)c(Cl)c3)(C(F)(F)F)C2O)nc1C(F)(F)F)C1CC1 (stereo not shown) [A4-104] | 100% |  | 100% |  | 98% | 100% | 100% | 
O=C(NCc1ccc(N2CCC(c3cc(Cl)c(Cl)c(Cl)c3)(C(F)(F)F)C2O)cc1Cl)C1CC1 (stereo not shown) [A1-16] | 100% | 100% |  | 100% |  |  |  | insecticidal activity (mortality) [8, 15]: 100%; insecticidal activity (by feeding damage degree) [6, 15]: 98%; activity (mortality) [9]: 90%; activity (mortality) [10]: 80%
O=C(NCc1ccc(N2CCC(c3cc(F)cc(C(F)(F)F)c3)(C(F)(F)F)C2O)nc1C(F)(F)F)C1CC1 (mixture of isomers) [A3-247] | 100% | 100% | 100% | 100% |  | 100% |  | acaricidal activity [2, 13]: 100%; insecticidal activity (pesticidal ratio) [5, 13]: 100%; insecticidal activity (mortality) [8, 13]: 100%; activity (mortality) [9]: 95%
CCNC(=O)NCc1ccc(N2CCC(c3cc(Cl)cc(Cl)c3)(C(F)(F)F)C2O)cc1C(F)(F)F (stereo not shown) [A1-369] |  |  |  |  |  |  | 100% | acaricidal activity [2, 15]: 100%; log P ([3]; HPLC on reversed phase columns): 3.73
O=C(NCc1ccc(N2CCC(c3cc(C(F)(F)F)cc(C(F)(F)F)c3)(C(F)(F)F)C2O)nc1Cl)C1CC1 (stereo not shown) [A3-148] |  | 100% |  | 100% |  |  |  | insecticidal activity (by feeding damage degree) [6, 15]: 90%; logP [3]: 3.96
O=C(NCc1cnc(N2CCC(c3cc(Cl)c(F)c(Cl)c3F)(C(F)(F)F)C2O)cc1C(F)(F)F)C1CC1 (stereo not shown) [A5-82] | 100% |  | 100% |  | 90% | 100% | 100% | activity (mortality) [9]: 95%
O=C(CC(F)(F)F)NCc1ccc(N2CCC(c3cc(Cl)cc(C(F)(F)F)c3)(C(F)(F)F)C2O)nc1C(F)(F)F (racemic) [A3-271] | 100% | 100% | 100% | 100% | 98% | 100% |  | acaricidal activity [2, 13]: 100%; insecticidal activity (pesticidal ratio) [5, 13]: 100%
CCC(=O)NCc1ccc(N2CCC(c3cc(F)cc(C(F)(F)F)c3)(C(F)(F)F)C2O)nc1C(F)(F)F (mixture of isomers) [A3-244] | 90% | 100% | 100% | 100% |  | 100% |  | insecticidal activity (pesticidal ratio) [5, 13]: 100%
CCC(=O)NCc1ccc(N2CC(c3cc(Cl)c(Cl)c(Cl)c3)(C(F)(F)F)CC2=O)cc1C(F)(F)F (stereo not shown) [C1-46, N-{4-[2-oxo-4-(3,4,5-trichlorophenyl)-4-(trifluoromethyl)pyrrolidin-1-yl]-2-(trifluoromethyl)benzyl}propanamide] |  |  |  |  |  |  |  | insecticidal activity [1, 13]: 100%; pest or weed control at 20 ppm [2, 13]: 100%; pest or weed control at 20 ppm [5, 13]: 100%; mortality at 100 ppm [9]: 100%; mortality at 100 ppm [11]: 100%
CCC(=O)NCc1ccc(N2CCC(c3cc(Cl)cc(Cl)c3)(C(F)(F)F)C2O)cc1C(F)(F)F (stereo not shown) [A1-35, N-{4-[3-(3,5-dichlorophenyl)-2-hydroxy-3-(trifluoromethyl)pyrrolidin-1-yl]-2-(trifluoromethyl)benzyl}propanamide] |  |  |  |  |  |  |  | pest or weed control at 20 ppm [2, 13]: 100%; pest or weed control at 20 ppm ([4]; Aulacophora, foliar, 168 h, active compound concentration 20 ppm, read-out: insecticidal activity): 100%; pest or weed control at 20 ppm [5, 13]: 100%; mortality at 20 ppm [12]: 100%; mortality at 100 ppm [9]: 100%; mortality at 100 ppm [11]: 100%
CN(C)C(=O)NCc1ccc(N2CCC(c3cc(Cl)cc(Cl)c3)(C(F)(F)F)C2O)cc1C(F)(F)F (stereo not shown) [A1-368] |  |  |  |  |  |  |  | acaricidal activity [2, 15]: 100%; log P ([3]; HPLC on reversed phase columns): 3.81
